Data from PubChem BioAssay (NCI).
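At the GI50, growth is halved. TGI: total growth inhibition.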

Columns and labels:
Experiment in all cases: NCI anticancer screen, dose series, 384-well format
786-0 renal = test system: 786-0 renal
A498 renal = test system: A498 renal
A549 NSCLC = test system: A549 NSCLC
ACHN renal = test system: ACHN renal
BT-549 breast = test system: BT-549 breast
CAKI-1 renal = test system: CAKI-1 renal
CCRF-CEM leukemia = test system: CCRF-CEM leukemia
COLO 205 colon = test system: COLO 205 colon
DU-145 prostate = test system: DU-145 prostate
HCC-2998 colon = test system: HCC-2998 colon
HCT-116 colon = test system: HCT-116 colon
HCT-15 colon = test system: HCT-15 colon
HL-60(TB) leukemia = test system: HL-60(TB) leukemia
HOP-62 NSCLC = test system: HOP-62 NSCLC
HOP-92 NSCLC = test system: HOP-92 NSCLC
HT29 colon = test system: HT29 colon
IGROV1 ovarian = test system: IGROV1 ovarian
K-562 leukemia = test system: K-562 leukemia
KM12 colon = test system: KM12 colon
LOX IMVI melanoma = test system: LOX IMVI melanoma
M14 melanoma = test system: M14 melanoma
MALME-3M melanoma = test system: MALME-3M melanoma
MCF7 breast = test system: MCF7 breast
MDA-MB-231 breast = test system: MDA-MB-231 breast
MDA-MB-435 melanoma = test system: MDA-MB-435 melanoma
MDA-MB-468 breast = test system: MDA-MB-468 breast
MOLT-4 leukemia = test system: MOLT-4 leukemia
NCI-H226 lung = test system: NCI-H226 lung
NCI-H23 lung = test system: NCI-H23 lung
NCI-H322M lung = test system: NCI-H322M lung
NCI-H460 NSCLC = test system: NCI-H460 NSCLC
NCI-H522 lung = test system: NCI-H522 lung
NCI/ADR-RES ovarian = test system: NCI/ADR-RES ovarian
OVCAR-3 ovarian = test system: OVCAR-3 ovarian
OVCAR-4 ovarian = test system: OVCAR-4 ovarian
OVCAR-5 ovarian = test system: OVCAR-5 ovarian
OVCAR-8 ovarian = test system: OVCAR-8 ovarian
PC-3 prostate = test system: PC-3 prostate
RPMI-8226 leukemia = test system: RPMI-8226 leukemia
RXF 393 renal = test system: RXF 393 renal
SF-268 CNS = test system: SF-268 CNS
SF-295 CNS = test system: SF-295 CNS
SF-539 CNS = test system: SF-539 CNS
SK-MEL-2 melanoma = test system: SK-MEL-2 melanoma
SK-MEL-28 melanoma = test system: SK-MEL-28 melanoma
SK-MEL-5 melanoma = test system: SK-MEL-5 melanoma
SK-OV-3 ovarian = test system: SK-OV-3 ovarian
SN12C renal = test system: SN12C renal
SNB-19 CNS = test system: SNB-19 CNS
SR leukemia = test system: SR leukemia
SW-620 colon = test system: SW-620 colon
T-47D breast = test system: T-47D breast
TK-10 renal = test system: TK-10 renal
U251 glioblastoma = test system: U251 glioblastoma
UACC-257 melanoma = test system: UACC-257 melanoma
UACC-62 melanoma = test system: UACC-62 melanoma
UO-31 renal = test system: UO-31 renal

`Cc1[nH]c(/C=C2\C(=O)Nc3ccc(S(=O)(=O)Cc4c(Cl)cccc4Cl)cc32)c(C)c1C(=O)N1CCC[C@@H]1CN1CCCC1` gave a GI50 ([…]-0 renal) of 1440 nM, a TGI (786-0 renal) of 2750 nM and a GI50 (A498 renal) of 1630 nM. The TGI (A498 renal) was 2990 nM, the GI50 (A549 NSCLC) was 1710 nM and the TGI (A549 NSCLC) was 3100 nM. It also gave a GI50 (ACHN renal) of 1600 nM, a TGI (ACHN renal) of 2950 nM and a GI50 (BT-549 breast) of 1560 nM. The TGI (BT-549 breast) was 2900 nM, the GI50 (CAKI-1 renal) was 1530 nM and the TGI (CAKI-1 renal) was 2860 nM. For the same compound, the GI50 (CCRF-CEM leukemia) was 681 nM, the TGI (CCRF-CEM leukemia) was 1900 nM and the GI50 (COLO 205 colon) was 1720 nM. The TGI (COLO 205 colon) was 3100 nM, the GI50 (DU-145 prostate) was 1850 nM and the TGI (DU-145 prostate) was 3250 nM. It also gave a GI50 (HCC-2998 colon) of 1990 nM, a TGI (HCC-2998 colon) of 3420 nM and a GI50 (HCT-116 colon) of 1560 nM. It also gave a TGI (HCT-116 colon) of 2910 nM, a GI50 (HCT-15 colon) of 1820 nM and a TGI (HCT-15 colon) of 3230 nM. It also gave a GI50 (HL-60(TB) leukemia) of 2110 nM, a TGI (HL-60(TB) leukemia) of 3540 nM and a GI50 (HOP-62 NSCLC) of 1850 nM. For the same compound, the TGI (HOP-62 NSCLC) was 3250 nM, the GI50 (HOP-92 NSCLC) was 1880 nM and the TGI (HOP-92 NSCLC) was 3290 nM. The GI50 (HT29 colon) was 1780 nM, the TGI (HT29 colon) was 3180 nM and the GI50 (IGROV1 ovarian) was 1710 nM. The TGI (IGROV1 ovarian) was 3100 nM, the GI50 (K-562 leukemia) was 1720 nM and the TGI (K-562 leukemia) was 3100 nM. It also gave a GI50 (KM12 colon) of 445 nM, a TGI (KM12 colon) of 1500 nM and a GI50 (LOX IMVI melanoma) of 2020 nM. The TGI (LOX IMVI melanoma) was 3460 nM, the GI50 (M14 melanoma) was 1740 nM and the TGI (M14 melanoma) was 3120 nM. For the same compound, the GI50 (MALME-3M melanoma) was 1720 nM, the TGI (MALME-3M melanoma) was 3100 nM and the GI50 (MCF7 breast) was 1750 nM. For the same compound, the TGI (MCF7 breast) was 3130 nM, the GI50 (MDA-MB-231 breast) was 1670 nM and the TGI (MDA-MB-231 breast) was 3040 nM. It also gave a GI50 (MDA-MB-435 melanoma) of 1760 nM, a TGI (MDA-MB-435 melanoma) of 3150 nM and a GI50 (MDA-MB-468 breast) of 1580 nM. For the same compound, the TGI (MDA-MB-468 breast) was 2930 nM, the GI50 (MOLT-4 leukemia) was 573 nM and the TGI (MOLT-4 leukemia) was 1730 nM. It also gave a GI50 (NCI-H226 lung) of 1930 nM, a TGI (NCI-H226 lung) of 3340 nM and a GI50 (NCI-H23 lung) of 1020 nM. The TGI (NCI-H23 lung) was 6680 nM, the GI50 (NCI-H322M lung) was 1750 nM and the TGI (NCI-H322M lung) was 3150 nM. It also gave a GI50 (NCI-H460 NSCLC) of 1340 nM, a TGI (NCI-H460 NSCLC) of 2630 nM and a GI50 (NCI-H522 lung) of 1980 nM. The TGI (NCI-H522 lung) was 3400 nM, the GI50 (NCI/ADR-RES ovarian) was 1890 nM and the TGI (NCI/ADR-RES ovarian) was 3360 nM. For the same compound, the GI50 (OVCAR-3 ovarian) was 1890 nM, the TGI (OVCAR-3 ovarian) was 3310 nM and the GI50 (OVCAR-4 ovarian) was 1740 nM. It also gave a TGI (OVCAR-4 ovarian) of 3130 nM, a GI50 (OVCAR-5 ovarian) of 1930 nM and a TGI (OVCAR-5 ovarian) of 3370 nM. For the same compound, the GI50 (OVCAR-8 ovarian) was 1680 nM, the TGI (OVCAR-8 ovarian) was 3060 nM and the GI50 (PC-3 prostate) was 1720 nM. The TGI (PC-3 prostate) was 3110 nM, the GI50 (RPMI-8226 leukemia) was 1250 nM and the TGI (RPMI-8226 leukemia) was 2500 nM. For the same compound, the GI50 (RXF 393 renal) was 1650 nM, the TGI (RXF 393 renal) was 3010 nM and the GI50 (SF-268 CNS) was 1460 nM. The TGI (SF-268 CNS) was 2780 nM, the GI50 (SF-295 CNS) was 1320 nM and the TGI (SF-295 CNS) was 2590 nM. It also gave a GI50 (SF-539 CNS) of 1740 nM, a TGI (SF-539 CNS) of 3120 nM and a GI50 (SK-MEL-2 melanoma) of 1240 nM. It also gave a TGI (SK-MEL-2 melanoma) of 2490 nM, a GI50 (SK-MEL-28 melanoma) of 1750 nM and a TGI (SK-MEL-28 melanoma) of 3130 nM. For the same compound, the GI50 (SK-MEL-5 melanoma) was 1190 nM, the TGI (SK-MEL-5 melanoma) was 2430 nM and the GI50 (SK-OV-3 ovarian) was 1340 nM. It also gave a TGI (SK-OV-3 ovarian) of 2630 nM, a GI50 (SN12C renal) of 1500 nM and a TGI (SN12C renal) of 2830 nM. For the same compound, the GI50 (SNB-19 CNS) was 1940 nM, the TGI (SNB-19 CNS) was 3360 nM and the GI50 (SR leukemia) was 1310 nM. The TGI (SR leukemia) was 2590 nM, the GI50 (SW-620 colon) was 1760 nM and the TGI (SW-620 colon) was 3160 nM. For the same compound, the GI50 (T-47D breast) was 1740 nM, the TGI (T-47D breast) was 3120 nM and the GI50 (TK-10 renal) was 1820 nM. The TGI (TK-10 renal) was 3220 nM, the GI50 (U251 glioblastoma) was 1810 nM and the TGI (U251 glioblastoma) was 3220 nM. For the same compound, the GI50 (UACC-257 melanoma) was 1420 nM, the TGI (UACC-257 melanoma) was 2730 nM and the GI50 (UACC-62 melanoma) was 1060 nM. For the same compound, the TGI (UACC-62 melanoma) was 2250 nM, the GI50 (UO-31 renal) was 1690 nM and the TGI (UO-31 renal) was 3070 nM.
